Experimental findings from patent US20070027138A1 (priority 2000, published 2007) are described below.

The IC50 is the midpoint of a concentration-inhibition curve. In general, melting point refers to the temperature of the solid-liquid transition.

Structures are written as SMILES. Where a name gives a salt, the structure may show the parent alone.

In one data set the target is acetylcholinesterase (AChE), human recombinant (Homo sapiens, UniProt P22303). Kind of data set: biochemical. The data set is classed as biochemical.
acetylcholinesterase (AChE), human recombinant, sequence (P22303 32-614): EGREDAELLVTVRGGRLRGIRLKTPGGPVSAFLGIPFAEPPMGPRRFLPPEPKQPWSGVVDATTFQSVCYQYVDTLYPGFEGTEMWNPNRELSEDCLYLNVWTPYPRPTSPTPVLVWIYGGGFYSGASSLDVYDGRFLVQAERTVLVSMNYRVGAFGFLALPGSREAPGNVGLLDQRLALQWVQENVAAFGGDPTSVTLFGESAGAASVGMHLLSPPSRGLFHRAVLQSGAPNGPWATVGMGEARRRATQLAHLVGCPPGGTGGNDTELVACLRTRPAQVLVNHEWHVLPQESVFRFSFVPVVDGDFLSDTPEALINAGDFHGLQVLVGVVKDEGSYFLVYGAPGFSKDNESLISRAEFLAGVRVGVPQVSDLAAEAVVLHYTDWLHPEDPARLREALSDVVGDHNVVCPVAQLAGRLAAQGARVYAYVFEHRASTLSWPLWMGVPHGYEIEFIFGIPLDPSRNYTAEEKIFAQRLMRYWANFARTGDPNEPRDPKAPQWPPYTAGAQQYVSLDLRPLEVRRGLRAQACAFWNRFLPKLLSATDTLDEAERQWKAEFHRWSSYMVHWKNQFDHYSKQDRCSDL
Settings: not given
As for `COc1ccc2c3c1OC1CC(O)C=CC31CCN(CCCCN1C(=O)c3ccccc3S1(=O)=O)C2` (centres unmarked) [SPH-1369], the IC50 was 0.022 µM.

Staying with this data set, now noted: human recombinant enzyme (hr); pre-incubation of the enzyme with inhibitor (mE); read-out: IC50 (AChE, mE, hr).
Take `COc1ccc2c3c1OC1CC(O)C=CC31CC[N+](C)(CC1CC1)C2` (single isomer, unassigned; (-)) [SPH-1146, (−) Cyclopropylmethylgalanthaminium bromide]: the IC50 turned out to be 1.2 µM.

As for `CCOC(=O)CCN1CCC23C=C[C@H](O)CC2Oc2c(OC)cc(Br)c(c23)C1` (stereo partly drawn) [SPH-1162, 3-((6R)-1-Bromo-6-hydroxy-3-methoxy-5,6,9,10-tetrahydro-4aH-[1]benzofuro[3a,3,2-ef][2]benzazepin-11(12H)-yl)propanoic acid ethyl ester], the IC50 was determined as 200 µM.

As to `COc1cc(N(C)C)c2c3c1O[C@H]1CC(O)C=CC31CCN(C)C2` (some centres unmarked) [SPH-1163], the half-maximal inhibitory concentration (IC50) came out at 200 µM.

As to `C=CCN1CCC23C=CC(O)CC2Oc2c(OC)cc(C)c(c23)C1` (centres unmarked) [SPH-1199], the IC50 came out at 200 µM.

Turning to `COc1cc(C)c2c3c1OC1CC(O)C=CC31CCN(C)C2` (centres unmarked) [SPH-1200], the IC50 is 200 µM.

As for `COc1cc(C)c2c3c1OC1C[C@@H](O)C=CC31CCN(CCN1CCOCC1)C2` (some centres unmarked) [SPH-1202], the IC50 came to 200 µM.

Take `COc1cc(C)c2c3c1OC1CC(O)C=CC31CCN(C)C2` (centres unmarked) [SPH-1204]: the IC50 came out at 200 µM.

Regarding `COc1cc(Br)c2c3c1OC1C[C@@H](O)C=CC31CCN(C(=O)NC(C)C)C2` (stereo partly drawn) [SPH-1208, (6R)-1-Bromo-6-hydroxy-N^11-isopropyl-3-methoxy-5,6,9,10-tetrahydro-4aH-[1]benzofuro[3a,3,2-ef][2]benzazepine-11(12H)-carboxylic acid amide], the IC50 was 200 µM.

With `COc1ccc2c3c1OC1C[C@@H](O)C=CC31CCN(c1nc(Oc3ccccc3)nc(Oc3ccccc3)n1)C2` (stereo partly drawn) [SPH-1228, (6R)-11-(4,6-Diphenoxy-1,3,5-triazine-2-yl)-3-methoxy-5,6,9,10,11,12-hexahydro-4aH-[1]benzofuro[3a,3,2-ef][2]benzazepin-6-ol], the IC50 was 200 µM.

As to `COc1ccc2c3c1OC1C[C@@H](O)C=CC31CCN(c1nc(OCCN)nc(OCCN)n1)C2` (stereo partly drawn) [SPH-1233, (6R)-11-(4,6-Bis-(2aminoethoxy)-1,3,5-triazine-2-yl)-3-methoxy-5,6,9,10,11,12-hexahydro-4aH-[1]benzofuro[3a,3,2-ef][2]benzazepin-6-ol], the IC50 came out at 200 µM.

In the case of `COc1ccc2c3c1OC1CC(O)C=CC31CN(C)CC2` (centres unmarked) [SPH-1263, (4aα,8aα)-4a,5,9,10,11-Hexahydro-3-methoxy-10-methyl-6H-benzofuro[3a,3,2-ef]-[3]benzazepin-6-ol], the IC50 stood at 200 µM.

In the case of `COc1ccc2c3c1OC1C[C@@H](O)C=CC31CCN(C(=O)Nc1ccccc1C(F)(F)F)C2` (some centres unmarked) [SPH-1266], the IC50 amounted to 30 µM.

As for `COc1ccc2c3c1OC1CC(O)C=CC31CCN(CCC(=O)O)C2` (centres unmarked) [SPH-1276], the IC50 was found to be 42 µM.

Regarding `COC(=O)C(=CN1CCC23C=CC(O)CC2Oc2c(OC)ccc(c23)C1)C(=O)OC` (centres unmarked) [SPH-1278], the IC50 came out at 100 µM.

On to `COc1cc(C)c2c3c1OC1CC(O)C=CC31CCN(CCCN1CCCCC1)C2` (centres unmarked) [SPH-1298], for which the IC50 amounted to 200 µM.

Consider `COc1ccc2c3c1OC1CC(O)C=CC31CCCC2N` (centres unmarked) [SPH-1309], for which the IC50 came to 200 µM.

For the compound `COc1ccc2c3c1OC1CC(O)C=CC31CCN(CCN)C2` (centres unmarked) [SPH-1311], the half-inhibitory concentration (IC50) came to 1.3 µM.

As for `C=CCCC(=O)N1CCC23C=CC(O)CC2Oc2c(OC)ccc(c23)C1` (centres unmarked) [SPH-1326], the IC50 came out at 8.4 µM.

As for `COC(=O)C1=CON2CCC34C=CC(O)CC3Oc3c(OC)ccc(c34)C12` (centres unmarked) [SPH-1332], the IC50 was 200 µM.

Still in this data set, the particulars now being: last section of the table, own sub-head (r307); read-out: IC50 AChE.
Take `C=C(C)C[N+]1(C)CC[C@@]23C=C[C@H](O)C[C@@H]2Oc2c(OC)ccc(c23)C1` (some centres unmarked) [SPH-1193]: the IC50 was 1.5 µM.

Still in this data set, the particulars now being: read-out: IC50 (AChE, mE, hr); human recombinant enzyme (hr); pre-incubation of the enzyme with inhibitor (mE).
Take `COc1cc(Br)c2c3c1OC1C[C@@H](O)C=CC31CCN(CCC#N)C2` (stereo in doubt) [SPH-1210, 3-((6R)-1-Bromo-6-hydroxy-3-methoxy-5,6,9,10-tetrahydro-4aH-[I]benzofuro[3a,3,2-ef][2]benzazepine-11(12H)-yl)propanenitrile]: the IC50 was 200 µM.

Tested on in the next data set: not given
Assay: not given
Settings: not given
On to `COc1ccc2c3c1O[C@H]1C[C@@H](O)C=C[C@@]31CCN(C)C2=O`, for which the melting point was 251 to 255 °C.

As to `COc1ccc2c3c1O[C@H]1C[C@@H](O)C=C[C@@]31CCN1OC(OC(C)=O)C[C@@H]21` (some centres unmarked), the melting point was in the range of 132 to 134 °C.

As to `COc1ccc2c3c1O[C@H]1C[C@@H](O)C=C[C@@]31CCN1OC=C(C#N)[C@H]21`, the melting point is 137 to 139 °C.

The compound `COc1ccc2c3c1O[C@H]1C[C@@H](O)C=C[C@@]31CCN(CCCCCN1C(=O)c3cccc4cccc(c34)C1=O)C2` (as salt: fumarate) returned a melting point of 129 to 134 °C.
